Experimental data published in patent publication US11696917B2, “Agent enhancing antitumor effect using pyrazolo[3,4-d]pyrimidine compound” (TAIHO PHARMACEUTICAL CO., LTD., priority 2017, dated 2023).

Experiments:
[1] = test system: Human stomach cancer cells 4-1st; assay: Combination of Compound 1 and trastuzumab emtansine (in vivo), subcutaneous tumor in nude mice; conditions: for T/C (%): Day 15; for BWC (%) Day 15 Mean: mouse, in vivo, po
Excerpt: Human stomach cancer cells 4-1st were obtained as fragment tumor from the Central Institute for Experimental Animals. Tumor was excised approximately one month after subcutaneous transplantation and passage in a nude mouse (BALB/cAJcl-nu/nu, CLEA Japan, Inc.), and prepared into a fragment of approximately 2 mm square. A transplantation needle was packed with one fragment and subcutaneously inserted from around the right most distal rib of a nude mouse. After entrance to the right back, the inner cylinder was pushed to eject and transplant the tumor. Electronic calipers were used in tumor size measurement, and the major axis and the minor axis of the tumor of each mouse were measured by sandwiching the tumor between the measuring surfaces of the electronic calipers (Days 0, 4, 8, 11 and 15). A tumor volume (TV) was calculated from the major axis and the minor axis. A relative tumor volume (RTV) and a rate of change in relative tumor volume (T/C) were calculated from the calculated tumor volume. TV, RTV, and T/C were calculated according to the following expressions. Tumor volume TV (mm^3)=(Major axis, mm)×(Minor axis, mm)×(Minor axis, mm)/2 Relative tumor volume RTV=(TV on the day of measurement)/(TV on the day of grouping) Rate of change in relative tumor volume T/C (%)=(Average RTV of an administration group)/(Average RTV of a control group)×100
An electronic balance for animals was used in body weight measurement. A rate of change in body weight on day n (BWCn) was calculated from the body weight on day n (BWn) according to the following expression. Rate of change in body weight BWCn (%)=(BWn−BW0)/BW0×100
Nude mice whose TV reached 100 to 300 mm^3 were selected, and six animals were assigned to each group by the equal number method (MiSTAT (ver. 2.0)) such that average TV was equalized among groups.
The presence or absence of an effect of combined use and toxicity were determined from tumor sizes and body weights on the day of grouping (Day 0) and the day of evaluation (Day 15). During the administration period, the body weights were measured every day for the calculation of the amount of a dosing solution.

[2] = test system: KPL-4 (human breast cancer); assay: Combination of Compound 1 and other antitumor agents (in vitro), CellTiter-Glo, median effect method; format: cell-based
Procedure: (§1) The supplier of each reagent, the suppliers of tumor cell lines, the media used, and the numbers of cells to be inoculated are shown in the tables below.
(§2) The cells were inoculated at 20 μL/well to a 384-well culture plate (Corning Inc.). The plate inoculated with the cells were cultured in an incubator set to 37° C. and 5% CO2. On the day following inoculation, each of mixed solutions of Compound 1 and each other antitumor agent at varying combinations of concentrations was added to the cells. Specifically, 8 serial dilutions (including (0 nM)) of Compound 1 and 10 serial dilutions (including (0 nM)) of the other antitumor agent were prepared using Leibovitz's L-15 medium containing 10% FBS, or ATCC formulated RPMI-1640 medium containing 10% FBS. Drug solutions in which equal amounts of the respective serial dilutions of the compounds were dispensed were mixed at a ratio of 1:1 to prepare a total of 80 mixed drug solutions including every combination. Each of these mixed drug solutions was added at 5 μL/well (N=4) to the plate, followed by further culture for 3 days under conditions of 37° C. and 5% CO2.
(§3) Three days later, CellTiter-Glo™ 2.0 Reagent (Promega Corporation) was added thereto at 25 μL/well, and chemiluminescence was measured using a plate reader (EnSpire® Multimode Plate Reader, PerkinElmer Japan Co., Ltd.).
(§4) The enhancement of an effect by combined use of the drugs was evaluated according to a method known in the art (a method described in Trends Pharmacol. Sci., 4, 450-454, 1983 or Pharmacol Rev., 58 (3), 621-81, 2006).
(§5) An average value from 4 wells of each combination was calculated from the obtained data, and a cell survival rate normalized against a control supplemented with a medium containing a vehicle was calculated. A Fa (fraction of affect) value was calculated by subtracting the cell survival rate from 1. Median effect analysis software CalcuSyn 2.0 (CalcuSyn, Inc.) for calculation by the median effect method was used in the calculation of CI.
(§6) As for the combinations of the concentrations of both the drugs for calculating CI, a Fa value closer to 1 presumably means a concentration range in which one of the drugs had too strong an effect, and a Fa value closer to 0 presumably means a concentration range in which any of the drugs had too weak an effect. Since these concentration ranges were not appropriate for the discussion of a synergistic effect, combinations that satisfied 0.2 S Fa 0.8 were extracted from the combinations of the respective concentrations of Compound 1 and the other antitumor agent on the basis of the calculated Fa value.
(§7) An effect of combined use was determined as shown in the table below (Pharmacol Rev., 58 (3), p. 621-81, 2006).

[3] = test system: SK-BR-3 (human breast cancer); assay: as above; format: cell-based
Procedure: as §1, §2, §3, §4, §5, §6, §7

[4] = Compound 1 7.5 mg/kg/day p.o. Days 1-14
[5] = Compound 1 15 mg/kg/day p.o. Days 1-14
[6] = Compound 1 68.6 nM + Paclitaxel 0.0229 nM, ratio 1:0.00033, KPL-4
[7] = Compound 1 68.6 nM + Paclitaxel […], ratio 1:0.00011, KPL-4
[8] = Compound 1 206 nM + Paclitaxel 0.617 nM, ratio 1:0.0030, KPL-4
[9] = Compound 1 206 nM + Paclitaxel 1.85 nM, ratio 1:0.0090, KPL-4
[10] = Compound 1 617 nM + Paclitaxel 1.85 nM, ratio 1:0.0030, KPL-4
[11] = Compound 1 1852 nM + Paclitaxel 1.85 nM, ratio 1:0.0010, KPL-4
[12] = Compound 1 5556 nM + Paclitaxel 1.85 nM, ratio 1:0.00033, KPL-4
[13] = Compound 1 5556 nM + Paclitaxel 5.56 nM, ratio 1:0.0010, KPL-4
[14] = Compound 1 16667 nM + Paclitaxel 1.85 nM, ratio 1:0.00011, KPL-4
[15] = Compound 1 50000 nM + Paclitaxel 1.85 nM, ratio 1:0.000037, KPL-4
[16] = Compound 1 0.412 nM + Cisplatin 6185 nM, ratio 1:15030, SK-BR-3
[17] = Compound 1 1.24 nM + Cisplatin 6185 nM, ratio 1:5010, SK-BR-3
[18] = Compound 1 3.70 nM + Cisplatin 687 nM, ratio 1:186, SK-BR-3
[19] = Compound 1 3.70 nM + Cisplatin 2062 nM, ratio 1:557, SK-BR-3
[20] = Compound 1 3.70 nM + Cisplatin 6185 nM, ratio 1:1670, SK-BR-3

Q: `C=CC(=O)N1CCC[C@@H](n2nc(C(=O)Nc3ccc(CC(=O)N(C)C)c(C)c3C)c3c(N)ncnc32)C1` [Compound 1, (R)-1-(1-acryloylpiperidin-3-yl)-4-amino-N-(4-(2-(dimethylamino)-2-oxoethyl)-2,3-dimethylphenyl)-1H-pyrazolo[3,4-d]pyrimidine-3-carboxamide] was tested. Which “RTV Day 15 Mean ± SD” value [1, 4] did it give?
A: 5.92 ± 0.38

Q: What about the “T/C (%)” value [1, 4] of the same compound?
A: 51.6%

Q: And the “RTV Day 15 Mean ± SD” value [1, 5]?
A: 3.58 ± 0.41

Q: And the “T/C (%)” value [1, 5]?
A: 31.2%

Q: What about the “BWC (%) Day 15 Mean” value ([1]; 7.5 mg/kg/day) of the same compound?
A: 7.41%

Q: What about the “BWC (%) Day 15 Mean” value ([1]; 15 mg/kg/day) of the same compound?
A: 3.63%

Q: What about the CI [2, 6] of the same compound?
A: 0.03

Q: And the Fa [2, 6]?
A: 0.44

Q: What about the CI [2, 7] of the same compound?
A: 0.15

Q: And the Fa [2, 7]?
A: 0.32

Q: What about the CI [2, 8] of the same compound?
A: 0.50

Q: And the Fa [2, 8]?
A: 0.33

Q: And the CI [2, 9]?
A: 0.30

Q: What about the Fa [2, 9] of the same compound?
A: 0.52

Q: What about the CI [2, 10] of the same compound?
A: 0.31

Q: And the Fa [2, 10]?
A: 0.54

Q: And the CI [2, 11]?
A: 0.36

Q: What about the Fa [2, 11] of the same compound?
A: 0.55

Q: What about the CI [2, 12] of the same compound?
A: 0.48

Q: And the Fa [2, 12]?
A: 0.57

Q: What about the CI [2, 13] of the same compound?
A: 0.44

Q: What about the Fa [2, 13] of the same compound?
A: 0.78

Q: And the CI [2, 14]?
A: 0.38

Q: What about the Fa [2, 14] of the same compound?
A: 0.66

Q: And the CI [2, 15]?
A: 0.13

Q: And the Fa [2, 15]?
A: 0.86

Q: What about the CI [3, 16] of the same compound?
A: 0.86

Q: And the Fa [3, 16]?
A: 0.50

Q: And the CI [3, 17]?
A: 0.84

Q: What about the Fa [3, 17] of the same compound?
A: 0.55

Q: And the CI [3, 18]?
A: 0.78

Q: And the Fa [3, 18]?
A: 0.22

Q: What about the CI [3, 19] of the same compound?
A: 0.79

Q: And the Fa [3, 19]?
A: 0.37

Q: And the CI [3, 20]?
A: 0.63

Q: What about the Fa [3, 20] of the same compound?
A: 0.65
